Publication PMC6318274, “Lattice engineering enables definition of molecular features allowing for potent small-molecule inhibition of HIV-1 entry” (Nature Communications, 2019)
Read-outs that look alike come from different tables or passages of the source.

Columns and labels:
[1] = test system: SIVmac251.30.SG3; parameters: method as in earlier work; conditions: SIVmac251.30.SG3, clade NA; cited from earlier work
[2] = test system: SVA.MLV; parameters: method as in earlier work; conditions: clade NA; cited from earlier work
[3] = test system: HIV-1 strain NL4-3; assay: Entry inhibition of laboratory-adapted HIV-1 strain NL4-3; format: cell-based; conditions: Human immunodeficiency virus 1, NL43; NL4-3
[4] = test system: SVA.MLV; assay: Neutralization assay, control virus SVA.MLV; format: cell-based; conditions: clade NA
Description: (§1) Neutralization was measured using single-round-of-infection HIV-1 Env-pseudoviruses and TZM-bl target cells (ARP Cat No. #8129)[44],[45]. Compounds were prepared at 400 μM with 4% DMSO (dimethyl sulfoxide) in PBS (phosphate-buffered saline) and diluted 20 times as the starting concentration for serial dilution in the neutralization assays. Pseudoviruses of ten strains from HIV-1 clades A, B, and C were incubated with serial dilutions of drug compounds, then added to TZM-bl target cells which have a luciferase reporter gene. After incubation at 37 °C for 2 days, infection of target cells was measured by luciferase activity. Neutralization curves were fit by nonlinear regression using a five-parameter hill slope equation[45].

[5] = test system: SIVmac251.30.SG3; assay: Neutralization assay, control virus SIVmac251.30.SG3; format: cell-based, SIV; conditions: Simian immunodeficiency virus; SIVmac251.30.SG3, clade NA
Description: as §1

Row | SMILES | IC50 [1] [µM] | IC50 [2] [µM] | EC50 [3] [pM] | IC50 [4] [µM] | IC50 [5] [µM]
1 | COc1cnc(-n2cnc(C)n2)c2[nH]cc(C(=O)C(=O)N3CCN(C(=O)c4ccccc4)CC3)c12 [BMS-626529] | > 20 | > 20 | – | – | –
2 | COc1cnc(-c2csc(C(=O)NCCO)n2)c2[nH]cc(C(=O)C(=O)N3CCC(=C(C#N)c4ccccc4)CC3)c12 [BMS-818251] | – | – | 19 ± 3 | > 20 | > 20
